What was measured:
Test in all cases: biochemical
Design in all cases: Invitrogen kinase panel: Z'Lyte activity (ATP at Km) or LanthaScreen competitive ATP-site binding, percent inhibition
[1] = target: LTK (Homo sapiens, UniProt P29376)
Text: (§1) We set out to identify allosteric activators of IRE1 RNase by screening internal compound libraries for binding to the kinase, using a published ATP-competitive TR-FRET assay. We then tested kinase binders to assess RNase modulation in an IRE1-specific kinetic RNA cleavage assay that uses the cytoplasmic construct IRE1-LKR (Q470-L977) (Supplementary Fig. 1a). […] Next, we tested these compounds in KMS-11 multiple myeloma cells, known to express functional IRE1 and strongly depend on the IRE1 pathway due to hyper-production of immunoglobulins in the ER[31]. We measured mRNA levels of XBP1s and the well-established RIDD target DGAT2[22] (Fig. 1c and Supplementary Fig. 1c, respectively) using a branched DNA (bDNA) assay. […] Importantly, neither G-9807 nor G-1749 inhibit PERK (Supplementary Table 1).

[2] = target: STK33 (Homo sapiens, UniProt Q9BYT3)
Text: as §1

[3] = target: T1, NEK1 (Homo sapiens, UniProt Q96PY6)
T1 sequence (Q96PY6 1-1258): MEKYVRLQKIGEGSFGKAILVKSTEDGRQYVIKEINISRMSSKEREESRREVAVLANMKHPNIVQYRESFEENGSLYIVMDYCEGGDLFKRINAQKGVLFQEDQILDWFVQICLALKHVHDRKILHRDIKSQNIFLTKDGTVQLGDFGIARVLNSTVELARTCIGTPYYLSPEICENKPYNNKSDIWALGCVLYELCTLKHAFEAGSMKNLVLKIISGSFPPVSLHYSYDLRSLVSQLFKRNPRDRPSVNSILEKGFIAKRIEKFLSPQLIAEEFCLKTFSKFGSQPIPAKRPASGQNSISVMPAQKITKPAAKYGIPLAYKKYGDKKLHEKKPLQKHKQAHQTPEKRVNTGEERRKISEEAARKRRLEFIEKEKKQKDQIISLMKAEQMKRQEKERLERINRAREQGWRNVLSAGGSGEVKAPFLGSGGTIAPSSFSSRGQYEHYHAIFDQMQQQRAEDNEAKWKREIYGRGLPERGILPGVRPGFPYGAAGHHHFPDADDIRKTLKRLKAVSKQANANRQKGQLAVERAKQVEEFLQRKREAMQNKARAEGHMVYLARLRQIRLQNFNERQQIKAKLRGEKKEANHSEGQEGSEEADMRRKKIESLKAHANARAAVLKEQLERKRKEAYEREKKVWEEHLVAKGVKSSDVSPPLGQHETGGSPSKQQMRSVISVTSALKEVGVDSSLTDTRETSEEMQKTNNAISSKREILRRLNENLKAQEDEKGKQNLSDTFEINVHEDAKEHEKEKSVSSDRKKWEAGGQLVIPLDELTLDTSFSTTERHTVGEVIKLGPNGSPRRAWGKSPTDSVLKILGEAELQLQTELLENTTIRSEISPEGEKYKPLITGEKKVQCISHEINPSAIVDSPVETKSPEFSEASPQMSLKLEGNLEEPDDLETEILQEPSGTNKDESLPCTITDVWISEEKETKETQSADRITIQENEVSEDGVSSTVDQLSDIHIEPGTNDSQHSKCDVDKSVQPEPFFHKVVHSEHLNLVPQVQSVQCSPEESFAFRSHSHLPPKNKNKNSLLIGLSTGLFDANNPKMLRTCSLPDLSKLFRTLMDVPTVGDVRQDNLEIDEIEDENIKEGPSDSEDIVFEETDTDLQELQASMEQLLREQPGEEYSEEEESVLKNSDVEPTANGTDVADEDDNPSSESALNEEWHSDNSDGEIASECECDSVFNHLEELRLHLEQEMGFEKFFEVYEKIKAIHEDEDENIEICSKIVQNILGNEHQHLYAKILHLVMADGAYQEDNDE

[4] = target: T2, TAK1-TAB1 (Homo sapiens, UniProt O43318)
T2 construct: gene MAP3K7
T2 sequence (O43318 1-606): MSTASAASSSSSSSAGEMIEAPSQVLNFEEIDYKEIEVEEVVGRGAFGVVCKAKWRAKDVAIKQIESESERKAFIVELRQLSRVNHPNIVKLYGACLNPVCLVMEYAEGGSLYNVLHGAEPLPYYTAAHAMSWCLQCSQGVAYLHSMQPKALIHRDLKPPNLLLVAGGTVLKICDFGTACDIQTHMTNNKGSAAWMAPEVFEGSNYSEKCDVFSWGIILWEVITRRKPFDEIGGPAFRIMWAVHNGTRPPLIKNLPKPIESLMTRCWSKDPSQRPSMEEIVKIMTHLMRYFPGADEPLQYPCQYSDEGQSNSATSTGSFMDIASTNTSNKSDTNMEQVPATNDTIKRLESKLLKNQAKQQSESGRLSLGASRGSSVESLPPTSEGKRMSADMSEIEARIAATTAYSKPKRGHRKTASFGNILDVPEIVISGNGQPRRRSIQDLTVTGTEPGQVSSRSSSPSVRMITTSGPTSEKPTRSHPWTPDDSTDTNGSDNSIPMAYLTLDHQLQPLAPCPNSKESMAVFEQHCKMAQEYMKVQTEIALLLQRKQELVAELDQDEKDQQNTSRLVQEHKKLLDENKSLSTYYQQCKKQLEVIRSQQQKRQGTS
T2 sequence (Q15750 1-504 partner): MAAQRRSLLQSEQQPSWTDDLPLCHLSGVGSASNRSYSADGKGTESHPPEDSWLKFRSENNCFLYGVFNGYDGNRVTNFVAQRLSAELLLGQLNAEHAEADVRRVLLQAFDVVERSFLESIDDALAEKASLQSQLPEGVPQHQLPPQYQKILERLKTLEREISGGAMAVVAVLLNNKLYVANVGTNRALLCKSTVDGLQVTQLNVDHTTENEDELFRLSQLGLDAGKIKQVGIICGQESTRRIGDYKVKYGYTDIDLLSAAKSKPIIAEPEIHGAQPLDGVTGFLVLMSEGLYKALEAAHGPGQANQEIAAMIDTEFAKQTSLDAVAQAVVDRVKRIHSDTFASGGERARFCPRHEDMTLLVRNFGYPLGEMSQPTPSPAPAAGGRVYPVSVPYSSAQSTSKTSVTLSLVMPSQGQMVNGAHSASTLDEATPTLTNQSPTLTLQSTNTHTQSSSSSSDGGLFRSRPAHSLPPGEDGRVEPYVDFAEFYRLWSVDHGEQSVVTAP

Sequence of LTK (P29376 whole entry): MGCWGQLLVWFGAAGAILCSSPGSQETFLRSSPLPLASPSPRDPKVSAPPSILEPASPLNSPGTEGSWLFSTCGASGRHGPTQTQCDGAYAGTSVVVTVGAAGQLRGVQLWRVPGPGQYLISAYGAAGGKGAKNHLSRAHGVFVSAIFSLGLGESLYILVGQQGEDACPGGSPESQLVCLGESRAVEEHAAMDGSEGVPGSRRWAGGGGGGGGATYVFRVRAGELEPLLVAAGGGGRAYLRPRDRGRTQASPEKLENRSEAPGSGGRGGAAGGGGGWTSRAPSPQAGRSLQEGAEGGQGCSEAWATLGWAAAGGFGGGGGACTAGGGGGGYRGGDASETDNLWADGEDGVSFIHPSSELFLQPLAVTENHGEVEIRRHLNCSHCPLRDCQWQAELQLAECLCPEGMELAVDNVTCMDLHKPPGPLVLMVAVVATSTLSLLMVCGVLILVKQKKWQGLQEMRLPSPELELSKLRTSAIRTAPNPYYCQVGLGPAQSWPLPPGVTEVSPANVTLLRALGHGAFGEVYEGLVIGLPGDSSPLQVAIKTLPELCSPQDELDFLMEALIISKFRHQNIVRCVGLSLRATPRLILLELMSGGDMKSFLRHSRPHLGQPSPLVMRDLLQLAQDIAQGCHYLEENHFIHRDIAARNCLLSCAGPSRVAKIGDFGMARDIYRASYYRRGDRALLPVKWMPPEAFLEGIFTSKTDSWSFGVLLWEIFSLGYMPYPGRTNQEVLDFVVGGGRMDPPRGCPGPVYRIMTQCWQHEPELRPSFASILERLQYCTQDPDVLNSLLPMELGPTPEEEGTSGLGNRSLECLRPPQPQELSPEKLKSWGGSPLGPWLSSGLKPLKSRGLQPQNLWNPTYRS
Sequence of STK33 (Q9BYT3 whole entry): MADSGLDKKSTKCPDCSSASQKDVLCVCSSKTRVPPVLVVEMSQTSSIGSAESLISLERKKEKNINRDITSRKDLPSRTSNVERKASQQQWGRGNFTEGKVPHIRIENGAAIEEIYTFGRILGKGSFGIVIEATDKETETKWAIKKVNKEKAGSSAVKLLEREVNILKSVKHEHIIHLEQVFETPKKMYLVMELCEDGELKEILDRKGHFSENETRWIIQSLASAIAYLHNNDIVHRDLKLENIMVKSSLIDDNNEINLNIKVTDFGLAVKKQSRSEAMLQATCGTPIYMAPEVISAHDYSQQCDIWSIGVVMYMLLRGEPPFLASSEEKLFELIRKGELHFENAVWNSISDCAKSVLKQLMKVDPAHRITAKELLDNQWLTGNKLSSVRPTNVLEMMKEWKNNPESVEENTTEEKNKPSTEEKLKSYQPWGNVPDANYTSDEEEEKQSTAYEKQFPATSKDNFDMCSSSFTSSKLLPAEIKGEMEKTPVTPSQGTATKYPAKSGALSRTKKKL

| Compound | inhibition at 1 µM [1] | inhibition at 1 µM [2] | inhibition at 1 µM [3] | inhibition at 1 µM [4] |
| --- | --- | --- | --- | --- |
| CCOC(=O)Nc1cccc2c(Oc3ncccc3-c3ccnc(N[C@H]4CCCNC4)n3)c(C)ccc12 [G-1749] | 1% | -4% | 0.5% | 23% |
| CC#CC(=O)Nc1cccc2c(Oc3ncccc3-c3ccnc(N[C@H]4CCCNC4)n3)c(C)ccc12 [G-7658] | -4.5% | -3.5% | 3% | -2.5% |
| O=c1cc(-c2n[nH]c3ncc(-c4c(F)cccc4F)cc23)nc(N2CCC(O)CC2)[nH]1 [G-9807] |  |  | 90.2% | 94.3% |

— PMC7736581, “Activation of the IRE1 RNase through remodeling of the kinase front pocket by ATP-competitive ligands” (Nature Communications, 2020)
